In patent publication US20100311084A1, “METHODS FOR PREDICTING A PATIENT'S RESPONSE TO EGFR INHIBITORS” (PRECISION THERAPEUTICS, INC., priority 2008, published 2010):
Where a name gives a salt, the structure may show the parent alone.

How the values were obtained:
H292 xenograft = conditions: tumor growth inhibition; cited from earlier work
H358 = test: ChemoFx chemoresponse assay, erlotinib, H358 cell line; format: cell-based, human; conditions: Log EC50 by dose number, mean of 3 assays
Experimental: (§1) Three human lung tumor-derived immortalized cell lines were tested in this study: H292, H358, and Calu3 (American Type Culture Collection, Manassas, Va.). These cell lines were seeded at 40,000 cells in T25 flasks (PGC Scientifics, Frederick, Md.) and allowed to grow for one week to approximately 90% confluence.
(§2) Cell lines and tissue specimens were processed and tested with the ChemoFx® assay as described elsewhere. Also see, U.S. Pat. Nos. 5,728,541, 6,900,027, 6,887,680, 6,933,129, 6,416,967, 7,112,415, and 7,314,731; and U.S. application Ser. Nos. 10/399,563, 11/504,098, 11/595,967, 11/713,662, and 11/785,984, all of which are hereby incorporated by reference in their entireties, and especially with regard to tissue processing and cell culturing techniques, and assays. Ten doses of erlotinib were prepared by serial dilution. The same 10-dose concentration range was used for the cell lines and the tissue specimens. For each dose, a cytotoxic index (CI) was calculated according to the following formula: CI=Mean cell countdose x/mean cell countcontrol, which represents the ratio of cells killed as a result of the treatment. Cell counts were the average of 3 replicates at each dose for primary cultures and 9 replicates at each dose for immortalized cell lines. […] Adjusted areas under the curve (aAUC) were calculated for each dose-response curve as previously described.

Calu-3 = test: ChemoFx chemoresponse assay, erlotinib, Calu-3 cell line; format: cell-based, human; conditions: Calu3; Log EC50 by dose number, mean of 3 assays
Experimental: as §1, §2

H292 = test: ChemoFx chemoresponse assay, erlotinib, H292 cell line; format: cell-based, human; conditions: Log EC50 by dose number, mean of 3 assays
Experimental: as §1, §2

Calu3 xenograft = conditions: tumor growth inhibition; cited from earlier work
[1] = system: primary cultures of lung cancer; test: ChemoFx chemoresponse assay, erlotinib, primary cultures of lung cancer; format: cell-based, human; conditions: 34 lung cancer tumors; 72-hour treatment
From the text: Patient tumor specimens: Primary cell cultures were established using tumor specimens procured for research purposes from the following sources: National Disease Research Interchange (Philadelphia, Pa.), Cooperative Human Tissue Network (Philadelphia, Pa.), Forbes Regional Hospital (Monroeville, Pa.), Jameson Hospital (New Castle, Pa.), Saint Barnabas Medical Center (Livingston, N.J.), Hamot Medical Center (Erie, Pa.), and Windber Research Institute (Windber, Pa.). The tumors were removed from the patient at the time of surgery, placed in the supplied 125-mL bottle containing sterile McCoy's shipping medium (Mediatech, Herndon, Va.), and shipped overnight to Precision Therapeutics, Inc. laboratories (Pittsburgh, Pa.).
Cell lines and tissue specimens were processed and tested with the ChemoFx® assay as described elsewhere. Also see, U.S. Pat. Nos. 5,728,541, 6,900,027, 6,887,680, 6,933,129, 6,416,967, 7,112,415, and 7,314,731; and U.S. application Ser. Nos. 10/399,563, 11/504,098, 11/595,967, 11/713,662, and 11/785,984, all of which are hereby incorporated by reference in their entireties, and especially with regard to tissue processing and cell culturing techniques, and assays. Ten doses of erlotinib were prepared by serial dilution. The same 10-dose concentration range was used for the cell lines and the tissue specimens. For each dose, a cytotoxic index (CI) was calculated according to the following formula: CI=Mean cell countdose x/mean cell countcontrol, which represents the ratio of cells killed as a result of the treatment. Cell counts were the average of 3 replicates at each dose for primary cultures and 9 replicates at each dose for immortalized cell lines. Dose response curves were generated using the CI at each dose. Adjusted areas under the curve (aAUC) were calculated for each dose-response curve as previously described.

H358 xenograft = conditions: tumor growth inhibition; cited from earlier work
SK-OV3 = test: Chemoresponse assay, lapatinib, SK-OV3; format: cell-based
Experimental: (§3) The chemoresponse assay for lapatinib was developed using four different immortalized cell lines (SK-OV3, BT474, MDA-MB-231, MCF7). In addition to cell lines, the chemoresponse assay was also performed on 55 primary cultures of breast carcinomas. […] Cell lines and specimens were treated with a 10 dose concentration range of lapatinib for 72 hours and stained with DAPI; remaining live cells were counted on an inverted fluorescent microscope.

[2] = system: primary cultures of breast carcinomas; test: Chemoresponse assay, lapatinib, primary cultures of breast carcinomas; format: cell-based, human; conditions: 55 primary breast cultures; 72 hours
Experimental: as §3

MCF7 = test: Chemoresponse assay, lapatinib, MCF7; format: cell-based; conditions: 72 hours
Experimental: as §3

MDA-MB-231 = test: Chemoresponse assay, lapatinib, MDA-MB-231; format: cell-based; conditions: 72 hours
Experimental: as §3

BT474 = test: Chemoresponse assay, lapatinib, BT474; format: cell-based
Experimental: as §3

Row | Mean (Log EC50*) (H358) | Mean (Log EC50*) (Calu-3) | Mean (Log EC50*) (H292) | EC50 (SK-OV3; Homo sapiens, SK-OV-3, 72 hours) | EC50 (MCF7; Homo sapiens) | EC50 (MDA-MB-231; Homo sapiens) | EC50 (BT474; Homo sapiens, BT-474, 72 hours) | Compound | Xenograft TGI (%) [22] (H292 xenograft) | Xenograft TGI (%) [22] (Calu3 xenograft) | specimens Intermediate Responsive to erlotinib [1] | specimens Non-Responsive to erlotinib [1] | specimens Responsive to erlotinib [1] | Xenograft TGI (%) [22] (H358 xenograft) | response to lapatinib treatment (SK-OV3; 72 hours) | specimens non-responsive to lapatinib [2] | specimens responsive to lapatinib [2] | specimens with intermediate response to lapatinib [2] | response to lapatinib treatment (MCF7) | response to lapatinib treatment (MDA-MB-231) | response to lapatinib treatment (BT474; 72 hours)
1 | 5.925 dose number | 6.715 dose number | 4.731 dose number | – | – | – | – | C#Cc1cccc(Nc2ncnc3cc(OCCOC)c(OCCOC)cc23)c1 [erlotinib, Erlotinib hydrochloride] | 85% | 67% | 20.6% | 70.6% | 8.8% | 25% | – | – | – | – | – | – | –
2 | – | – | – | ~10 µM | ~10 µM | ~10 µM | ~10 µM | CS(=O)(=O)CCNCc1ccc(-c2ccc3ncnc(Nc4ccc(OCc5cccc(F)c5)c(Cl)c4)c3c2)o1 [lapatinib, Lapatinib] | – | – | – | – | – | – | responsive | 76% | 9% | 15% | responsive | responsive | responsive
